From patent publication US11052092B2, “N-{[2-(piperidin-1-yl)phenyl](phenyl)methyl}-2-(3-oxo-3,4-dihydro-2H-1,4-benzoxazin-7-yl)acetamide derivatives and related compounds as ROR-gamma modulators for treating autoimmune diseases” (Genfit, priority 2017, dated 2021)

Legend:
multiple sclerosis model = settings: administered by injection; cited from earlier work
[1] = test system: patients with moderate to severe psoriasis; settings: cited from earlier work
human RORγt = molecular target: T1, human RORγt (Homo sapiens, UniProt P51449); assay: RORE Luciferase/RORγt transactivation assay; type: cell-based; settings: COS-7 cells transfected with human IL-17 promoter luciferase reporter and RORγt plasmid; 20 h with compound; read-out: IC50, RORγt activity inhibition
T1 construct: the full-length cDNA of human RORγt; expressed in transfected cells; host or cells: COS-7 (monkey kidney)
T1 sequence (P51449 1-497 isoform P51449-2): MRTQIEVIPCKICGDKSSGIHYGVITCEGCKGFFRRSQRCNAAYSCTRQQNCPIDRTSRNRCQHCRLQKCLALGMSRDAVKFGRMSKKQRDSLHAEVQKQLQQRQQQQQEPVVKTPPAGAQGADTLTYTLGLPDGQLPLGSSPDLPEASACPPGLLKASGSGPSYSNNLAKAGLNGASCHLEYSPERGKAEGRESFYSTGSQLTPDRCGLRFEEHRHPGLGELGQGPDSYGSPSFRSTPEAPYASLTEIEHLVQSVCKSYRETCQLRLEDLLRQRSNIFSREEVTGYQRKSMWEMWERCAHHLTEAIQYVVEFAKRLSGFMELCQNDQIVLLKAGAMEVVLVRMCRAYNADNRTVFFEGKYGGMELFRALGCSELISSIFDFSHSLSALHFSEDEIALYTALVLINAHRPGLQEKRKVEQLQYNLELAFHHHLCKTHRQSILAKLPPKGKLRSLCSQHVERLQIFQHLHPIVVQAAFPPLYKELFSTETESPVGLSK
Summary of the method: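 COS-7 cells were transiently co-transfected with a human IL-17 promoter (RORE/CNS)–luciferase reporter and a RORγt expression plasmid, then seeded at 10000 cells/well in serum-free, phenol red-free DMEM. Compounds were added at 0.3% DMSO final. Luciferase was read with Steady-Glo, and IC50 and Emax were derived.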

[2] = molecular target: T2, RORγt ligand-binding domain (RORγt-LBD) (Homo sapiens, UniProt P51449); assay: Time-resolved FRET (TR-FRET) RORγt coactivator assay; settings: GST-RORγ-LBD, biotinylated RIP140 peptide, 2 hours at room temperature
T2 construct: 20 nM recombinantly expressed RORγ-LBD fused to GST
T2 sequence (P51449 269-508 limits assumed): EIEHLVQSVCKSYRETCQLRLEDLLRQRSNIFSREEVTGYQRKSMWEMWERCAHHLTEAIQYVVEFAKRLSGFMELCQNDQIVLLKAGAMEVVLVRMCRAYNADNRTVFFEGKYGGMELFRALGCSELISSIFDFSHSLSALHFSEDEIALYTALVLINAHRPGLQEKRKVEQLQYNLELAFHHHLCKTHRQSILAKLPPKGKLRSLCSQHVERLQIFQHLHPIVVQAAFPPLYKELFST
Summary of the method: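 GST-tagged RORγt-LBD (20 nM) with 30 nM biotinylated RIP140-derived peptide, streptavidin-terbium and d2 anti-GST in CHAPS buffer (1 mM DTT, 2 mM EDTA, 0.1% BSA), 1% DMSO. Compounds at 0.3 nM–30 μM final, equilibrated 2 h, room temperature, dark. Coactivator displacement lowers the TR-FRET signal; IC50 (μM) and Emax (%) reported.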

[3] = test system: Murine EL-4 lymphoma cell line overexpressing human RORγt; assay: IL-17 secretion from EL4 murine lymphoma; type: cell-based; settings: Mus musculus; human RORγt-transfected EL4 cells, PMA (10 ng/mL) and ionomycin (1 μM), 24 h; read-out: IC50, IL-17 secretion inhibition
Summary of the method: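 EL-4 cells electroporated with hRORγt plasmid, seeded at 150000 cells/well and pretreated with compound for 24 h, then stimulated with PMA (10 ng/mL) plus ionomycin (1 μM final) with compound for a further 24 h at 37 °C. IL-17 in supernatant measured by HTRF or ELISA.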

psoriasis model = settings: administered by injection; cited from earlier work

CC(=O)Nc1nc(C)c(S(=O)(=O)Nc2ccc(C(O)(C(F)(F)F)C(F)(F)F)cc2)s1 [SR1001]
efficacy in multiple sclerosis model (multiple sclerosis model): efficacious

CCS(=O)(=O)c1ccc(CNC(=O)c2cnc3c(c2)CN(C[C@H]2CC[C@H](C(F)(F)F)CC2)[C@H]3C(C)C)nc1 [VTP-43742]
reduction in the Psoriasis Area Severity Index (PASI) score relative to placebo ([1]; 350 mg dose group): 24% | placebo-adjusted PASI score reduction ([1]; 700 mg dose group): 30% | plasma IL-17 levels ([1]; relative to placebo): reduced

Cc1ccc(C(NC(=O)Cc2ccc3c(ccn3C(=O)C3CCOCC3)c2)c2ccc(C)o2)c(N2CCCCC2)c1 (stereo not drawn) [Cpd. 118, N-{[4-methyl-2-(piperidin-1-yl)phenyl](5-methylfuran-2-yl)methyl}-2-[1-(oxane-4-carbonyl)-1H-indol-5-yl]acetamide]
IC50 (human RORγt): 10 to 100 nM | IC50 [2]: 100 to 1000 nM | IC50 [3]: < 100 nM | melting point: 96 °C

Cc1ccc([C@@H](NC(=O)Cc2ccc3oc([C@@H](O)c4c(C)noc4C)cc3c2)c2ccccc2)c(C)c1 [TMP778]
efficacy in psoriasis model (psoriasis model): efficacious
